Measurements from US11312682B2, “Selective inhibitors of carbonic anhydrase” (VILNIUS UNIVERSITY, priority 2015, dated 2022).
Read-outs that look alike come from different tables or passages of the source.

Tests used:
human recombinant CA XII = human recombinant CA XII (Homo sapiens, UniProt O43570); assay: Fluorescent thermal shift assay (FTSA), binding to CA XII; details: read-out: Dissociation constants, CA XII
human recombinant CA I = human recombinant CA I (Homo sapiens, UniProt P00915); assay: Fluorescent thermal shift assay (FTSA), binding to CA I; details: Table 3; FTSA at 37° C., pH 7.0; read-out: Dissociation constants, CA I
human recombinant CA IX = human recombinant CA IX (Homo sapiens, UniProt Q16790); assay: Fluorescent thermal shift assay (FTSA), binding to CA IX; details: read-out: Dissociation constants, CA IX
human recombinant CA II = human recombinant CA II (Homo sapiens, UniProt P00918); assay: Fluorescent thermal shift assay (FTSA), binding to CA II; details: read-out: Dissociation constants, CA II
human recombinant CA XIV = human recombinant CA XIV (Homo sapiens, UniProt Q9ULX7); assay: Fluorescent thermal shift assay (FTSA), binding to CA XIV; details: read-out: Dissociation constants, CA XIV
human recombinant CA VA = human recombinant CA VA (Homo sapiens, UniProt P35218); assay: Fluorescent thermal shift assay (FTSA), binding to CA VA; details: Table 1; FTSA at 37° C. and pH 7.0; read-out: Dissociation constants, CA VA
[1] = molecular target: human recombinant CA XIII (Homo sapiens, UniProt Q8N1Q1); assay: Fluorescent thermal shift assay (FTSA), binding to CA XIII; details: Table 1; FTSA at 37° C. and pH 7.0; read-out: Dissociation constants, CA XIII
human recombinant CA VII = human recombinant CA VII (Homo sapiens, UniProt P43166); assay: Fluorescent thermal shift assay (FTSA), binding to CA VII; details: Table 1; FTSA at 37° C. and pH 7.0; read-out: Dissociation constants, CA VII
human recombinant CA IV = human recombinant CA IV (Homo sapiens, UniProt P22748); assay: Fluorescent thermal shift assay (FTSA), binding to CA IV; details: Table 1; FTSA at 37° C. and pH 7.0; read-out: Dissociation constants, CA IV
human recombinant CA III = human recombinant CA III (Homo sapiens, UniProt P07451); assay: Fluorescent thermal shift assay (FTSA), binding to CA III; details: Table 1; FTSA at 37° C. and pH 7.0; read-out: Dissociation constants, CA III
human recombinant CA VI = human recombinant CA VI (Homo sapiens, UniProt P23280); assay: Fluorescent thermal shift assay (FTSA), binding to CA VI; details: Table 1; FTSA at 37° C. and pH 7.0; read-out: Dissociation constants, CA VI
human recombinant CA VB = human recombinant CA VB (Homo sapiens, UniProt Q9Y2D0); assay: Fluorescent thermal shift assay (FTSA), binding to CA VB; details: Table 1; FTSA at 37° C. and pH 7.0; read-out: Dissociation constants, CA VB
[2] = Table 3, FTSA at 37° C., pH 7.0
[3] = Table 1, FTSA at 37° C. and pH 7.0

Chain of human recombinant CA VA (P35218 39-305): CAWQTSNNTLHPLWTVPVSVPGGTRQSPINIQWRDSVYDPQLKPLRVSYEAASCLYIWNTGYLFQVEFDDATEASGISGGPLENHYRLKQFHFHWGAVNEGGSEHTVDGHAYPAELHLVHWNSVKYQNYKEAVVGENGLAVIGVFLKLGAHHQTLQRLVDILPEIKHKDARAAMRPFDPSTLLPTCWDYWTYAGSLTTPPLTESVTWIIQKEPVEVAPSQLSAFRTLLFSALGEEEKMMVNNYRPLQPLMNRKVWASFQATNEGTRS
Chain of human recombinant CA I (P00915 whole entry): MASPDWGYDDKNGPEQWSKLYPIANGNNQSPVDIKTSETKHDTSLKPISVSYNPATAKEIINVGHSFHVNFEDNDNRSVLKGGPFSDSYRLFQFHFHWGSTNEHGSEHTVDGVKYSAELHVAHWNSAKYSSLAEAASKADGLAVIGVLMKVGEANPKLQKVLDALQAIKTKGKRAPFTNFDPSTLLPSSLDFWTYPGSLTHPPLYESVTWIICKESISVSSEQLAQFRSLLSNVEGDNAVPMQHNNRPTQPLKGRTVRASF
Chain of human recombinant CA VII (P43166 whole entry): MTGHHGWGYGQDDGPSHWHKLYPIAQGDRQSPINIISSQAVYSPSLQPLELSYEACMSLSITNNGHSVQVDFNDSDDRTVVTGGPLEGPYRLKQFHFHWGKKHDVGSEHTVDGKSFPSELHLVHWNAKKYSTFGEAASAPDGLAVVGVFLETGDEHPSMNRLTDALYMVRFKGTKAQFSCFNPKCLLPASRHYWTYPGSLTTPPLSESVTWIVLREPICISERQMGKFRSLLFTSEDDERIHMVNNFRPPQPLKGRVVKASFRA
Chain of human recombinant CA XII (O43570 25-354): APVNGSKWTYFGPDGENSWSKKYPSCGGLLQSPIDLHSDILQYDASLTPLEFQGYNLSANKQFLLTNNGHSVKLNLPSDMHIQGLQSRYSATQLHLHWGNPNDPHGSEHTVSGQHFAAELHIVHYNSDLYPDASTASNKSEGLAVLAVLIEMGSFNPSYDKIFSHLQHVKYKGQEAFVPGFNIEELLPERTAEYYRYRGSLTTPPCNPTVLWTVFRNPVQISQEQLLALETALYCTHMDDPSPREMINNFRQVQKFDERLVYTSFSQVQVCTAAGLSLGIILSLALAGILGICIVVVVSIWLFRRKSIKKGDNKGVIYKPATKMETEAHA
Chain of human recombinant CA XIII (Q8N1Q1 whole entry): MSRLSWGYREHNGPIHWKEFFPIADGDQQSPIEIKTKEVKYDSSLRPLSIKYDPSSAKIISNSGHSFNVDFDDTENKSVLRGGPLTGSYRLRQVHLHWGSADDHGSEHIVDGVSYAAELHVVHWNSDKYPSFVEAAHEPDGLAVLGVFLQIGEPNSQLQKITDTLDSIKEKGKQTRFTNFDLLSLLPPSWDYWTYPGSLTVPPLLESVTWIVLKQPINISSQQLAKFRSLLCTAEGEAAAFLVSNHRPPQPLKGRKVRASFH
Chain of human recombinant CA XIV (Q9ULX7 16-337): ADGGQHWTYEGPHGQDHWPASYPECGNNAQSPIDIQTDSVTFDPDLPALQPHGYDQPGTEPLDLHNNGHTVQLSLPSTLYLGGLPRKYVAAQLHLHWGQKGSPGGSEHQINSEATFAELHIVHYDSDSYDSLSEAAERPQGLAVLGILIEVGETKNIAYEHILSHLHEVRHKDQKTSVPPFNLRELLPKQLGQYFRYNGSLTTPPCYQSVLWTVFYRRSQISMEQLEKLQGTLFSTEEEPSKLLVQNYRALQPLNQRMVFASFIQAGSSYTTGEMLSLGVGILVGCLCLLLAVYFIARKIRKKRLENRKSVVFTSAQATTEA
Chain of human recombinant CA IV (P22748 19-284): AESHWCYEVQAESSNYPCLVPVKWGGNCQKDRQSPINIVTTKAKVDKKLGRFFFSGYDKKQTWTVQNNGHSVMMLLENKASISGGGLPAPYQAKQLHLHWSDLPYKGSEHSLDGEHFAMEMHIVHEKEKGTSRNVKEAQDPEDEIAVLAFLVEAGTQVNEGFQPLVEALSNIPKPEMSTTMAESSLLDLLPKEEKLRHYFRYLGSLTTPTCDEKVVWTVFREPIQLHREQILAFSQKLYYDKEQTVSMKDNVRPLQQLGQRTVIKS
Chain of human recombinant CA VI (P23280 18-308): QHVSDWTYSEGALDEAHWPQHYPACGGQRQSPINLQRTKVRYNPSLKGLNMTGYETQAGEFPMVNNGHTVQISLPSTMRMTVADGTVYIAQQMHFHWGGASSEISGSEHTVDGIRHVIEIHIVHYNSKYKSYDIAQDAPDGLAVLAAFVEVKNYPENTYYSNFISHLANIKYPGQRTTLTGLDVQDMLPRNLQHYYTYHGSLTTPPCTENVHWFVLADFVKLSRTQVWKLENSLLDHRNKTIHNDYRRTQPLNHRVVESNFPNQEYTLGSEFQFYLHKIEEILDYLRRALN
Chain of human recombinant CA III (P07451 whole entry): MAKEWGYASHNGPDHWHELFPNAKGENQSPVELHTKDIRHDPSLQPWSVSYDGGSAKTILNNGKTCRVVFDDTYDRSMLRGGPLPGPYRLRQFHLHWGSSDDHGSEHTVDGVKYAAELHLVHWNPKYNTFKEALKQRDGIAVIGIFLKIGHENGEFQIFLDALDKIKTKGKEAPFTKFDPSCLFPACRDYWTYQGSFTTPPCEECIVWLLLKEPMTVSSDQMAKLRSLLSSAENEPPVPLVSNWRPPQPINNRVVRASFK
Chain of human recombinant CA VB (Q9Y2D0 34-317): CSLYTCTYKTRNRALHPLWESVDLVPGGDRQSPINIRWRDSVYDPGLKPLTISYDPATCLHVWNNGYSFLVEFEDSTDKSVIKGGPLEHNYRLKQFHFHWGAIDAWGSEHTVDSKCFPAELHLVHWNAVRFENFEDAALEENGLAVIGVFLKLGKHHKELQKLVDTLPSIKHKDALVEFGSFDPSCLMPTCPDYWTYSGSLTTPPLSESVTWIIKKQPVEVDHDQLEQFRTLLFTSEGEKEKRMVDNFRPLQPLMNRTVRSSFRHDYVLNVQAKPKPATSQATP

Row | Compound | Kd (human recombinant CA XII; [2]) | Kd (human recombinant CA I) | Kd (human recombinant CA IX; [2]) | Kd (human recombinant CA II; [2]) | Kd (human recombinant CA VA) | Kd (human recombinant CA XIV; [3]) | Kd (human recombinant CA IX; [3]) | Kd [1] | Kd (human recombinant CA VII) | also measured
1 | COC(=O)c1cc(S(N)(=O)=O)c(Cl)cc1S(=O)(=O)c1ccccc1 [Compound 42a, methyl 2-(benzenesulfonyl)-4-chloro-5-sulfamoyl-benzoate] | – | – | – | – | – | – | – | – | – | Kd (human recombinant CA XIV; Table 2, FTSA at 37° C., pH 7.0): 0.03 nM
2 | NS(=O)(=O)c1cc(C(=O)Cn2cnc3ccccc32)c(Cl)cc1Cl [Compound 29, 5-[2-(benzimidazol-1-yl)acetyl]-2,4-dichloro-benzenesulfonamide] | – | – | – | – | 2 nM | 20 nM | 400 nM | 700 nM | 100 nM | –
3 | Cc1cc2ncn(CC(=O)c3ccc(Cl)c(S(N)(=O)=O)c3)c2cc1C [Compound 20, 2-chloro-5-[2-(5,6-dimethylbenzimidazol-1-yl)acetyl]benzenesulfonamide] | – | – | – | – | 0.8 nM | 50 nM | 600 nM | 800 nM | – | Kd (human recombinant CA XII; [3]): 3100 nM; Kd (human recombinant CA II; [3]): 600 nM
4 | Cc1cc2ncn(CC(=O)c3cc(S(N)(=O)=O)c(Cl)cc3Cl)c2cc1C [Compound 30, 2,4-dichloro-5-[2-(5,6-dimethylbenzimidazol-1-yl)acetyl]benzenesulfonamide] | – | – | – | – | 5 nM | 300 nM | – | – | 700 nM | Kd (human recombinant CA II; [3]): 500 nM
5 | 2,4-dichloro-5-[2-(5-methoxybenzimidazol-1-yl)acetyl]benzenesulfonamide and 2,4-dichloro-5-[2-(6-methoxybenzimidazol-1-yl)acetyl]benzenesulfonamide [Compound 31] | – | – | – | – | 6 nM | 40 nM | 400 nM | 600 nM | 300 nM | Kd (human recombinant CA XII; [3]): 2800 nM; Kd (human recombinant CA IV): 1400 nM; Kd (human recombinant CA III): 40000 nM; Kd (human recombinant CA VI): 1800 nM; Kd (human recombinant CA VB): 700 nM
6 | NS(=O)(=O)c1cc(C(=O)Cn2cnc3ccccc32)ccc1Cl [Compound 19, 5-[2-(benzimidazol-1-yl)acetyl]-2-chloro-benzenesulfonamide] | – | – | – | – | 0.3 nM | 50 nM | – | 800 nM | – | Kd (human recombinant CA IV): 600 nM; Kd (human recombinant CA III): > 200000 nM; Kd (human recombinant CA VI): 700 nM

Continued, in another order:

Row | Kd (human recombinant CA XII; [2]) | Kd (human recombinant CA I) | Kd (human recombinant CA IX; [2]) | Kd (human recombinant CA II; [2]) | Kd (human recombinant CA VA) | Kd (human recombinant CA XIV; [3]) | Kd (human recombinant CA IX; [3]) | Kd [1] | Kd (human recombinant CA VII) | Compound | also measured
7 | 33 nM | 17000 nM | 0.3 nM | 250 nM | – | – | – | – | – | COC(=O)c1cc(S(N)(=O)=O)c(Cl)cc1SC1CCCCC1 [Compound 14b, methyl 4-chloro-2-cyclohexylsulfanyl-5-sulfamoyl-benzoate] | –
8 | 22 nM | 6900 nM | 2.9 nM | 110 nM | – | – | – | – | – | COC(=O)c1cc(S(N)(=O)=O)c(Cl)cc1SCc1ccccc1 [Compound 14c, methyl 2-benzylsulfanyl-4-chloro-5-sulfamoyl-benzoate] | –
9 | 53 nM | 13000 nM | 13 nM | 170 nM | – | – | – | – | – | COC(=O)c1cc(S(N)(=O)=O)c(Cl)cc1SCCc1ccccc1 [Compound 14d, methyl 4-chloro-2-phenethylsulfanyl-5-sulfamoyl-benzoate] | –
10 | 6.7 nM | 10000 nM | – | – | – | – | – | – | – | COC(=O)c1cc(S(N)(=O)=O)c(Cl)cc1Sc1ccccc1 [Compound 14a, methyl 4-chloro-2-phenylsulfanyl-5-sulfamoyl-benzoate] | –
